This is an account of results in US20250221996A1, “HETEROCYCLIC COMPOUNDS, COMPOSITIONS THEREOF, AND METHODS OF TREATMENT THEREWITH” (BeiGene, Ltd., priority 2022, published 2025).

The test relates to pERK1/2(THR202/TYR204) level in AsPC-1 cells. Description: pERK assay (HTRF) in AsPC-1 cell line. It is filed as cell-based. The following applies: 2 h compound treatment. The method, then: AsPC-1 cell line was used in this study. Cells were maintained in RPMI-1640 supplemented with 10% fetal bovine serum (Thermo Fisher), 50 units/mL penicillin and streptomycin (Thermo Fisher) and kept at 37° C. in a humidified atmosphere of 5% CO2 in air. Cells were reinstated from frozen stocks that were laid down within 30 passages from the original cells purchased. 30000 cells per well were seeded into a 96-well plate and incubated overnight. Cells were treated with a 10-point dilution series. The final compound concentration is from 0 to 10 μM. After 2 h compound treatment, cells were lysed, and the pERK1/2(THR202/TYR204) level in the cell lysates was detected by HTRF kit (Cisbio). In brief, a total of 16 μL of cell lysate from each well of a 96-well plate was transferred to a 384-well white assay plate. Lysate from each well was incubated with 2 μL of Eu3+-cryptate (donor) labeled anti-phospho-ERK1/2 and 2 μL of D2 (acceptor) labeled anti-phospho-ERK1/2 antibodies (Cisbio) overnight in dark at room temperature. When donor and acceptor are in close proximity, excitation of the donor with laser triggers a Fluorescence Resonance Energy Transfer (FRET) towards the acceptor, which in turn fluoresces at 655 nm wavelength. FRET signals were measured using a PHERAstar FSX reader (BMG Labtech). IC50 determination was performed by fitting the curve of percent inhibition versus the log of the inhibitor concentration using Dotmatics.
Background: In TR-FRET formats the signal depends on donor and acceptor labels being close together.

Broadly, the IC50 is the concentration that gives 50% inhibition. Read a high IC50 as weaker potency.

Molecule `N#Cc1c(N)sc2c(F)ccc(-c3c(C(F)(F)F)cc4c(N5CC6CCC(C5)N6)nc(OCC56COC(C(F)F)(C5)C6)nc4c3F)c12` (single isomer, unassigned) [Example 1-Isomer 1, 4-(4-(3,8-diazabicyclo[3.2.1]octan-3-yl)-2-((1-(difluoromethyl)-2-oxabicyclo[2.1.1]hexan-4-yl)methoxy)-8-fluoro-6-(trifluoromethyl)quinazolin-7-yl)-2-amino-7-fluorobenzo[b]thiophene-3-carbonitrile] registered an IC50 of 2570 nM.

In the case of `N#Cc1c(N)sc2c(F)ccc(-c3c(C(F)(F)F)cc4c(N5CC6CCC(C5)N6)nc(OCC56COC(C(F)F)(C5)C6)nc4c3F)c12` (single isomer, unassigned) [Example 1-Isomer 2, 4-(4-(3,8-diazabicyclo[3.2.1]octan-3-yl)-2-((1-(difluoromethyl)-2-oxabicyclo[2.1.1]hexan-4-yl)methoxy)-8-fluoro-6-(trifluoromethyl)quinazolin-7-yl)-2-amino-7-fluorobenzo[b]thiophene-3-carbonitrile], inhibition was half-maximal at 84 nM (IC50).

Molecule `N#Cc1c(N)sc2c(F)ccc(-c3c(Cl)cc4c(N5CC6CCC(C5)N6)nc(OCC56COC(C5)C6)nc4c3F)c12` (single isomer, unassigned) [Example 2-Isomer 1, 4-(2-((2-oxabicyclo[2.1.1]hexan-4-yl)methoxy)-4-(3,8-diazabicyclo[3.2.1]octan-3-yl)-6-chloro-8-fluoroquinazolin-7-yl)-2-amino-7-fluorobenzo[b]thio phene-3-carbonitrile] showed an IC50 of 160 nM.

In the case of `N#Cc1c(N)sc2c(F)ccc(-c3c(Cl)cc4c(N5CC6CCC(C5)N6)nc(OCC56COC(C5)C6)nc4c3F)c12` (single isomer, unassigned) [Example 2-Isomer 2, 4-(2-((2-oxabicyclo[2.1.1]hexan-4-yl)methoxy)-4-(3,8-diazabicyclo[3.2.1]octan-3-yl)-6-chloro-8-fluoroquinazolin-7-yl)-2-amino-7-fluorobenzo[b]thio phene-3-carbonitrile], the IC50 was over 10000 nM.

In turn, `COC1(COc2nc(N3CC4CCC(C3)N4)c3cc(C(F)(F)F)c(-c4ccc(F)c5sc(N)c(C#N)c45)c(F)c3n2)CCOC1` (single isomer, unassigned) [Example 3-Isomer 3, 4-(4-(3,8-diazabicyclo[3.2.1]octan-3-yl)-8-fluoro-2-((3-methoxytetra hydrofuran-3-yl)methoxy)-6-(trifluoromethyl)quinazolin-7-yl)-2-amino-7-fluoro benzo[b]thiophene-3-carbonitrile] registered an IC50 of 96 nM.

In the case of `COC1(COc2nc(N3CC4CCC(C3)N4)c3cc(C(F)(F)F)c(-c4ccc(F)c5sc(N)c(C#N)c45)c(F)c3n2)CCOC1` (single isomer, unassigned) [Example 3-Isomer 4, 4-(4-(3,8-diazabicyclo[3.2.1]octan-3-yl)-8-fluoro-2-((3-methoxytetra hydrofuran-3-yl)methoxy)-6-(trifluoromethyl)quinazolin-7-yl)-2-amino-7-fluoro benzo[b]thiophene-3-carbonitrile], the IC50 came to 273 nM.

`COC1(COc2nc(N3CC4CCC(C3)N4)c3cc(C(F)(F)F)c(-c4ccc(F)c5sc(N)c(C#N)c45)c(F)c3n2)CCOCC1` (single isomer, unassigned) [Example 4-Isomer 2, 4-(4-(3,8-diazabicyclo[3.2.1]octan-3-yl)-8-fluoro-2-((4-methoxytetrahydro-2H-pyran-4-yl)methoxy)-6-(trifluoromethyl)quinazolin-7-yl)-2-amino-7-fluorobenzo[b]thiophene-3 carbonitrile] yielded an IC50 (Homo sapiens, ASPC1, 2 h) of 100 nM.

As to `N#Cc1c(N)sc2c(F)ccc(-c3c(Cl)cc4c(N5C6CCC5CNC6)nc(OCC56COC(C5)C6)nc4c3F)c12` (single isomer, unassigned) [Example 5-Isomer 2, 4-(2-((2-oxabicyclo[2.1.1]hexan-4-yl)methoxy)-4-(3,8-diazabicyclo [3.2.1]octan-8-yl)-6-chloro-8-fluoroquinazolin-7-yl)-2-amino-7-fluorobenzo[b]thio phene-3-carbonitrile], the IC50 (Homo sapiens, ASPC1, 2 h) was determined as 44 nM.

For `N#Cc1c(N)sc2c(F)ccc(-c3c(C(F)(F)F)cc4c(N5C6CCC5CNC6)nc(OCC56COC(C5)C6)nc4c3F)c12` (single isomer, unassigned) [Example 9-Isomer 1, 4-(2-((2-oxabicyclo[2.1.1]hexan-4-yl)methoxy)-4-(3,8-diazabicyclo[3.2.1]octan-8-yl)-8-fluoro-6-(trifluoromethyl)quinazolin-7-yl)-2-amino-7-fluorobenzo[b]thiophene-3-carbonitrile], the IC50 is over 10000 nM.

`N#Cc1c(N)sc2c(F)ccc(-c3c(C(F)(F)F)cc4c(N5C6CCC5CNC6)nc(OCC56COC(C5)C6)nc4c3F)c12` (single isomer, unassigned) [Example 9-Isomer 2, 4-(2-((2-oxabicyclo[2.1.1]hexan-4-yl)methoxy)-4-(3,8-diazabicyclo[3.2.1]octan-8-yl)-8-fluoro-6-(trifluoromethyl)quinazolin-7-yl)-2-amino-7-fluorobenzo[b]thiophene-3-carbonitrile] registered an IC50 of 103 nM.

The molecule `N#Cc1c(N)sc2c(F)ccc(-c3c(C(F)(F)F)cc4c(N5CC6CCC(C5)N6)nc(OCC5(C#N)CCOC5)nc4c3F)c12` (single isomer, unassigned) [Example 10-Isomer 1, 3-(((7-(2-amino-3-cyano-7-fluorobenzo[b]thiophen-4-yl)-4-(3,8-diazabicyclo[3.2.1]octan-3-yl)-8-fluoro-6-(trifluoromethyl)quinazolin-2-yl)oxy)methyl)tetrahydrofuran-3-carbonitrile] showed an IC50 of over 10000 nM.

As to `N#Cc1c(N)sc2c(F)ccc(-c3c(C(F)(F)F)cc4c(N5CC6CCC(C5)N6)nc(OCC5(C#N)CCOC5)nc4c3F)c12` (single isomer, unassigned) [Example 10-Isomer 2, 3-(((7-(2-amino-3-cyano-7-fluorobenzo[b]thiophen-4-yl)-4-(3,8-diazabicyclo[3.2.1]octan-3-yl)-8-fluoro-6-(trifluoromethyl)quinazolin-2-yl)oxy)methyl)tetrahydrofuran-3-carbonitrile], the IC50 is over 10000 nM.

Take `N#Cc1c(N)sc2c(F)ccc(-c3c(C(F)(F)F)cc4c(N5CC6CCC(C5)N6)nc(OCC5(C#N)CCOC5)nc4c3F)c12` (single isomer, unassigned) [Example 10-Isomer 3, 3-(((7-(2-amino-3-cyano-7-fluorobenzo[b]thiophen-4-yl)-4-(3,8-diazabicyclo[3.2.1]octan-3-yl)-8-fluoro-6-(trifluoromethyl)quinazolin-2-yl)oxy)methyl)tetrahydrofuran-3-carbonitrile]: half-maximal inhibition (IC50) required 42 nM.

Regarding `N#Cc1c(N)sc2c(F)ccc(-c3c(C(F)(F)F)cc4c(N5CC6CCC(C5)N6)nc(OCC5(C#N)CCOC5)nc4c3F)c12` (single isomer, unassigned) [Example 10-Isomer 4, 3-(((7-(2-amino-3-cyano-7-fluorobenzo[b]thiophen-4-yl)-4-(3,8-diazabicyclo[3.2.1]octan-3-yl)-8-fluoro-6-(trifluoromethyl)quinazolin-2-yl)oxy)methyl)tetrahydrofuran-3-carbonitrile], the IC50 was 56 nM.
